Source: PubChem BioAssay (NCI)
Several values for one entry are separate records, joined by “and”; a condition that tells them apart may be missing. Equal values may be shown once.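 Tested at 5 concentrations; 48 h exposure; 96-well plates; endpoints linearly interpolated, else capped at highest concentration. Abbreviation: GI50, concentration required for 50% inhibition of growth. Definition used: TGI = concentration required for complete inhibition of growth.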

Tests used:
Assay in all cases: DTP human tumour cell line panel, 48 h
TK-10 renal = system: TK-10 renal
U251 CNS = system: U251 CNS
RPMI-8226 leukemia = system: RPMI-8226 leukemia
RXF 393 renal = system: RXF 393 renal
SK-MEL-5 melanoma = system: SK-MEL-5 melanoma
SF-539 CNS = system: SF-539 CNS
IGROV1 ovarian = system: IGROV1 ovarian
NCI-H23 lung = system: NCI-H23 lung
SW-620 colon = system: SW-620 colon
A549 NSCLC = system: A549 NSCLC

Row | Structure (SMILES) | TGI (TK-10 renal) | TGI (U251 CNS) | TGI (RPMI-8226 leukemia) | TGI (RXF 393 renal) | TGI (SK-MEL-5 melanoma) | TGI (SF-539 CNS) | TGI (IGROV1 ovarian) | TGI (NCI-H23 lung) | TGI (SW-620 colon) | TGI (A549 NSCLC) | GI50 (TK-10 renal) | GI50 (U251 CNS) | GI50 (RPMI-8226 leukemia) | GI50 (RXF 393 renal) | GI50 (SK-MEL-5 melanoma) | GI50 (SF-539 CNS) | GI50 (IGROV1 ovarian) | GI50 (NCI-H23 lung) | GI50 (SW-620 colon) | GI50 (A549 NSCLC)
1 | CNC(=O)NCCN1N=C(C)/C(=C\c2ccccc2)CC1=O | > 100 µM | > 100 µM | > 100 µM | > 100 µM | > 100 µM | > 100 µM | > 100 µM | > 100 µM | > 100 µM | > 100 µM | – | – | – | – | – | – | – | – | – | –
2 | Cc1ccc(C2C3Cc4ccccc4C3=NN2c2ccc(S(=O)(=O)NC(=O)Nc3ccccc3)cc2)cc1 (stereo unspecified) | 36.4 µM | 27.3 µM | 47.2 µM | 38.5 µM | 25.7 µM | 30.6 µM | 19.7 µM | 31.9 µM | 26 µM | 27.8 µM | 16 µM | 14.3 µM | 15 µM | 16 µM | 13.1 µM | 14.3 µM | 1.15 µM | 14.9 µM | 13.1 µM | 12.7 µM
3 | COC(=O)[C@H](CCCCNC(=O)OCc1ccccc1)NC(=O)[C@@H](NC(=O)Nc1cc(C(F)(F)F)cc(C(F)(F)F)c1)C(C)C | > 10 µM | > 10 µM | > 10 µM | > 10 µM | > 10 µM | > 10 µM | > 10 µM | > 10 µM | > 10 µM | > 10 µM | > 10 µM | > 10 µM | > 10 µM | > 10 µM | > 10 µM | > 10 µM | > 10 µM | > 10 µM | > 10 µM | > 10 µM
4 | Cc1ccc(NC2=CC(=O)C(=O)c3ccccc32)cc1 | 11 µM | 5.71 µM | > 100 µM | 13.7 µM | 2.67 µM | 3.77 µM | 12.9 µM | 4.1 µM | 4.01 µM | 3.68 µM | 2.83 µM | 2.01 µM | 3.55 µM | 3.32 µM | 1.38 µM | 1.8 µM | 2.73 µM | 1.56 µM | 1.92 µM | 1.72 µM
5 | Nc1nc(N)c(-c2ccc(Cl)c(Cl)c2)c(CP(Cl)(Cl)(Cl)Br)n1 | > 100 µM | > 100 µM | > 100 µM | > 100 µM | 56.6 µM | > 100 µM | 61.8 µM | > 100 µM | > 100 µM | > 100 µM | 29.6 µM | 4.8 µM | 17.3 µM | 18.1 µM | 6.72 µM | 12.9 µM | 8.92 µM | 19.6 µM | 4.2 µM | 5.37 µM
6 | O=C(CCl)Nc1ccc(Cc2ccc(NC(=O)CCl)cc2)cc1 | > 75 µM | 2.98 µM | 4.78 µM | 3.07 µM | 2.72 µM | 3.28 µM | 4.06 µM | 4.52 µM | 5.25 µM | > 100 µM | 4.17 µM | 1.4 µM | 1.67 µM | 1.43 µM | 1.37 µM | 1.66 µM | 1.43 µM | 1.77 µM | 1.92 µM | 4.01 µM
7 | CC[Si](CC)(CC)OC1[C@@H](O[Si](CC)(CC)CC)[C@@H](CNC(=O)NC)O[C@H]1n1cnc2c(NC(=O)Nc3ccccc3)ncnc21 (stereo partly specified) | 9.88 µM | > 100 µM | 5.33 µM | 4.67 µM | 4.02 µM | > 100 µM | > 100 µM | > 100 µM | > 100 µM | > 100 µM | 2.65 µM | 4.06 µM | 2.13 µM | 2.36 µM | 2.01 µM | 7.02 µM | 5.02 µM | 3.64 µM | 4.1 µM | 3.14 µM
8 | N#CC(C#N)=C1CCC2C(=C(C#N)C#N)CCC12 (stereo unspecified) | > 100 µM | > 100 µM | > 100 µM | > 100 µM | > 100 µM | > 100 µM | > 100 µM | > 100 µM | > 100 µM | > 100 µM | – | – | – | – | – | – | – | – | – | –
9 | O=c1[nH]c(=O)n(C2OC(CO)C(O)C2O)cc1F (stereo unspecified) | > 62.2 µM | > 48.7 µM | 44.8 µM | 2.45 µM | 38.4 µM | 3.03 µM | 3.12 µM | > 43.9 µM | > 100 µM | 38.4 µM | – | 0.0669 µM | 0.0742 µM | 4e-05 µM | – | – | – | – | 0.0314 µM | –
10 | OCC1OC(n2cnc3c(NCc4ccco4)ncnc32)C(O)C1O (stereo unspecified) | > 63.7 µM | > 100 µM | 21.3 µM | 15 µM | > 74.1 µM | 13.6 µM | 13.9 µM | 31.8 µM | > 100 µM | 36.9 µM | 3.18 µM | 4.43 µM | 3 µM | 2.21 µM | 9.36 µM | 3.07 µM | 2.09 µM | 2.87 µM | 0.849 µM | 2.6 µM
11 | COc1ccc2c(c1)C(=O)c1c-2n(CCCCl)c(=O)c2cc(N)ccc12 | > 100 µM | > 100 µM | > 100 µM | > 100 µM | > 100 µM | > 100 µM | > 100 µM | > 100 µM | > 100 µM | > 100 µM | > 82.5 µM | > 51.6 µM | > 100 µM | > 57.3 µM | 51 µM | > 100 µM | > 100 µM | > 100 µM | > 68.1 µM | > 100 µM
12 | Cc1ccc(NC(=O)CCC(=O)C2Cc3ccccc3C2=O)cc1C (stereo unspecified) | > 100 µM | > 100 µM | > 100 µM | > 100 µM | > 100 µM | > 100 µM | > 100 µM | > 100 µM | > 100 µM | > 100 µM | – | – | – | – | – | – | – | – | – | –
13 | Cc1cn(C2CC(O)C(COC(N)=O)O2)c(=O)[nH]c1=O (stereo unspecified) | > 100 µM | > 100 µM | > 100 µM | > 100 µM | > 100 µM | > 100 µM | > 100 µM | > 100 µM | > 100 µM | > 100 µM | – | – | – | – | – | – | – | – | – | –
14 | CC(C)(C)OC1=C(OC(C)(C)C)C(O)(c2ccc(Cl)cc2)C1=O (stereo unspecified) | > 100 µM | > 100 µM | > 100 µM | > 100 µM | > 100 µM | > 100 µM | > 100 µM | > 100 µM | > 100 µM | > 100 µM | – | – | – | – | – | – | – | – | – | –
15 | CCS(=O)(=O)N1CCN(c2ccc(Nc3ncc(C(N)=O)c(NC4CC4)n3)cc2)CC1 | 32.2 µM | > 100 µM | 9.82 µM | 9.46 µM | 26.6 µM | 10.7 µM | > 100 µM | > 100 µM | 61.9 µM | > 100 µM | 9.19 µM | 54.1 µM | 2.16 µM | 1.61 µM | 3.13 µM | 2.09 µM | 5.29 µM | 5.46 µM | 20.6 µM | 19 µM
16 | CCOC(=O)c1cc2c(n1Cc1cc(OC)cc(OC)c1)-c1oncc1CC2 | > 100 µM | > 100 µM | > 35.4 µM | > 100 µM | 20.3 µM | 4.58 µM | > 100 µM | > 100 µM | > 100 µM | > 100 µM | 3.58 µM | 0.262 µM | 0.354 µM | 0.136 µM | 0.0827 µM | 0.243 µM | 0.226 µM | 0.307 µM | 0.0859 µM | 0.27 µM
17 | CC(C)(C)OC(=O)N1Cc2cc3ccccc3nc2C1CO (stereo unspecified) | > 100 µM | > 100 µM | > 100 µM | > 100 µM | > 100 µM | > 100 µM | > 100 µM | > 100 µM | > 100 µM | > 100 µM | > 100 µM | > 100 µM | > 100 µM | > 100 µM | > 100 µM | > 100 µM | > 100 µM | > 100 µM | > 100 µM | > 100 µM
18 | NC(Cc1c[nH]c2cccc(F)c12)C(=O)O (stereo unspecified) | > 4500 µM | 1280 µM | > 4500 µM | > 4500 µM | 54.7 µM and 458 µM | 3040 µM | – | 3180 µM | 1020 µM | > 4500 µM | 1220 µM | 50.8 µM and 340 µM | – | 1320 µM | 20.1 µM and 154 µM | 381 µM | 43.8 µM | – | 47.7 µM and 279 µM | 98.7 µM and 679 µM
19 | Nc1no[n+]([O-])c1-c1nnc2c(n1)-c1ccccc1C2=O | 27.6 µM | 13.7 µM | 7.73 µM | 12.4 µM | 3.13 µM | 3.67 µM | 11.7 µM | 4.35 µM | 3.65 µM | 20.3 µM | 13.9 µM | 3.76 µM | 2.76 µM | 3.22 µM | 1.66 µM | 1.8 µM | 3.02 µM | 1.88 µM | 1.83 µM | 5.44 µM
20 | C=C1C(O)C2CC(C)(C)C(=O)C2=C(CC(C)C)C12CC2 (stereo unspecified) | > 100 µM | > 100 µM | > 100 µM | > 100 µM | > 100 µM | > 100 µM | > 100 µM | > 100 µM | > 100 µM | > 100 µM | > 100 µM | > 100 µM | 36 µM | > 100 µM | > 100 µM | > 100 µM | 55.6 µM | > 100 µM | > 100 µM | > 100 µM
21 | NCCCNc1nc2ccccc2c2c(=O)c3cc(F)cc(Cl)c3sc12 | 3.39 µM | 3.37 µM | 5.03 µM | 3.16 µM | 20.3 µM | 3.27 µM | 3.12 µM | 3.07 µM | 3.28 µM | 3.55 µM | 1.91 µM | 1.72 µM | 2.13 µM | 1.62 µM | 6.5 µM | 1.83 µM | 1.58 µM | 1.56 µM | 1.7 µM | 1.8 µM
